Results on eleven compounds are retold here after PMC6269038, “A Novel Class of Selective Acetylcholinesterase Inhibitors: Synthesis and Evaluation of (E)-2-(Benzo[d]thiazol-2-yl)-3-heteroarylacrylonitriles” (Molecules, 2012).

The IC50 is the concentration needed to halve the response being measured. Higher therefore signals lower potency.

Assay [1] deals with AChE (Electrophorus electricus) (Electrophorus electricus, UniProt O42275). Briefly: biochemical. Conditions: for IC50: AChE from Electrophorus electricus, average from three independent experiments, ^c = IC50 greater than 0.5 mg/mL.
AChE (Electrophorus electricus), sequence (O42275 24-633): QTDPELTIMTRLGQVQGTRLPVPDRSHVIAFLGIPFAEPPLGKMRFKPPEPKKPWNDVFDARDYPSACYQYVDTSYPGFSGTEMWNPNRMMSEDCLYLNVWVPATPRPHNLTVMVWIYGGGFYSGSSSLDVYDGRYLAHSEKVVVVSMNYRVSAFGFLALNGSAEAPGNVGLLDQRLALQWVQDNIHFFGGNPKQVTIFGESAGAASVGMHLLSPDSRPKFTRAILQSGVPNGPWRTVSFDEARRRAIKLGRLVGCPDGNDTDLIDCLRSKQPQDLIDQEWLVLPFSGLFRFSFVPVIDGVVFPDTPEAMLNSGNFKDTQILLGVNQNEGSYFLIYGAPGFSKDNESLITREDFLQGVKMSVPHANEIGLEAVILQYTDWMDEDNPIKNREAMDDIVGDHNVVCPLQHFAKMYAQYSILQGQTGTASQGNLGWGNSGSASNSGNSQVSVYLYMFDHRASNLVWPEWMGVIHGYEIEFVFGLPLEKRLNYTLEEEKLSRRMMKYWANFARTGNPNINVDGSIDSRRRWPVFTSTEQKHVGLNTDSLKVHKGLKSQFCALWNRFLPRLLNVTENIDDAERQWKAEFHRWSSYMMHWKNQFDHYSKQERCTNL
The target of assay [2] is T1, butyrylcholinesterase (BuChE) from equine serum (Equus caballus, UniProt P81908).
T1 construct: an AChE/BuChE solution (50 μL, 0.25 unit/mL) from Electroporus electricus and equine serum, respectively; from tissue; host or cells: equine serum
T1 sequence (P81908 whole entry): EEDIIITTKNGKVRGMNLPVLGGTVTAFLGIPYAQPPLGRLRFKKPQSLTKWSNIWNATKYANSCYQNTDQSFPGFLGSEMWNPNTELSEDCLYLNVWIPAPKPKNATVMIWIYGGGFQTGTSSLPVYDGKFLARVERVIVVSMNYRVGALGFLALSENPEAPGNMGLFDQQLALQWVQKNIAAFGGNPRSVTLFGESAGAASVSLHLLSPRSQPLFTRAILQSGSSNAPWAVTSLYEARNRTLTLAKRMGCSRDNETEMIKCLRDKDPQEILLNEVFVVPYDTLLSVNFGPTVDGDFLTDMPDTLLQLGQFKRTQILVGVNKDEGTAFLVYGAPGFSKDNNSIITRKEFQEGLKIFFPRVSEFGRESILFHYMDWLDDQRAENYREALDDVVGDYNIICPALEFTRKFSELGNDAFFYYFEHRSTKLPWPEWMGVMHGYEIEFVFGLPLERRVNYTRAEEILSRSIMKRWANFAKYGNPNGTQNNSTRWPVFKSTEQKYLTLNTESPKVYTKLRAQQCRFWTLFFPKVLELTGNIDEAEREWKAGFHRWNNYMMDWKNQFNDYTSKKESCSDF
The assay is described as follows: BuChE inhibition, Ellman method, 96-well plates. In kind it is biochemical. The note with it: average from three independent experiments, ^c = IC50 greater than 0.5 mg/mL. (DTNB colorimetry detects thiols as they appear.)

A further assay addresses AChE (Electrophorus electricus, UniProt O42275). The assay is described as follows: Kinetic characterization of AChE inhibition (Lineweaver-Burk, Ellman's method). In kind it is biochemical. The note with it: substrate acetylthiocholine; for type of AChE inhibition: Lineweaver-Burk plots, AChE 0.02U; for Vmax: in presence of inhibitor, nonlinear regression. As for the experimental part:
The kinetics of this new class of AChE inhibitors were studied in detail using compounds 7f and 7g as examples. The nature of AChE inhibition, caused by these two compounds, was investigated by the graphical analysis of steady-state inhibition data (Figure 2A,B). […] The values of Km and Vmax were calculated by nonlinear regression according to studies by Abell et al., where Vmax was maintained at the same value while Km value was increased.
Figure 2 Lineweaver-Burk plot of AChE (0.02U) with substrate acetylthiocholine, in the absence and presence of inhibitors 7g (A), 7f (B).
Kinetic characterization of AChE was performed by means of Ellman’s method. […]. Enzyme kinetic characterization studies were performed under same incubation conditions as described above using acetylthiocholine as substrate and DTNB was used as chromophoric reagent. A parallel control with no inhibitor in the mixture was used for comparison. Each concentration was analyzed in triplicate; and Lineweaver-Burk (1/V vs. 1/[S]) plot was constructed using Sigma Plot 10.0 version software.

“And” between values parts separate entries of the source, which are not always exact repeats. Equal entries are not always repeated.

AChE, sequence (O42275 24-633): as the sequence (O42275 24-633) above

With `N#C/C(=C\c1ccccn1)c1nc2ccccc2s1` [7k, (E)-2-(Benzo[d]thiazol-2-yl)-3-(pyridin-2-yl)acrylonitrile], the IC50 in assay [1] and in assay [2] was over 1900 µM each time.
In the case of `N#C/C(=C\c1cccnc1)c1nc2ccccc2s1` [7f, (E)-2-(Benzo[d]thiazol-2-yl)-3-(pyridin-3-yl)acrylonitrile], in assay [1], the IC50 was 155 µM and 103 µM. Also, at AChE, the “type of AChE inhibition” value is reported as “competitive inhibitors” and the Vmax is 0.07078. Further, the IC50 in assay [2] is over 2290 µM.
`Cc1cc(/C=C(\C#N)c2nc3ccccc3s2)no1` [7a, (E)-2-(Benzo[d]thiazol-2-yl)-3-(5-methylisoxazol-3-yl)acrylonitrile]: the IC50 in assay [1] is 1274 ± 0.7 µM; in assay [2], over 1870 µM.
`N#C/C(=C\c1cc(-c2ccccc2)on1)c1nc2ccccc2s1` [7b, (E)-2-(Benzo[d]thiazol-2-yl)-3-(5-phenylisoxazol-3-yl)acrylonitrile]: the IC50 stood at 1179 ± 0.5 µM in assay [1] and 1396.6 ± 0.8 µM in assay [2].
Regarding `N#C/C(=C\c1ccco1)c1nc2ccccc2s1` [7i, (E)-2-(Benzo[d]thiazol-2-yl)-3-(2-furyl)acrylonitrile], the 50% inhibitory concentration (IC50) was over 1980 µM in assay [1] and 1883 ± 0.8 µM in assay [2].
On to `N#C/C(=C\c1ncc[nH]1)c1nc2ccccc2s1` [7e, (E)-2-(Benzo[d]thiazol-2-yl)-3-(1H-imidazol-2-yl)acrylonitrile], for which the IC50 is 303 ± 0.8 µM in assay [1] and over 1980 µM in assay [2].
In the case of `Cc1nn(-c2ccccc2)c(Cl)c1/C=C(\C#N)c1nc2ccccc2s1` [7h, (E)-2-(Benzo[d]thiazol-2-yl)-3-(5-chloro-3-methyl-1-phenyl-1H-pyrazol-4-yl)acrylonitrile], the IC50 in assay [1] and in assay [2] was over 1330 µM each time.
In assay [1], `N#C/C(=C\c1ccc(-c2ccc(Cl)cc2)o1)c1nc2ccccc2s1` [7g, (E)-2-(Benzo[d]thiazol-2-yl)-3-[5-(4-chlorophenyl)furan-2-yl]acrylonitrile] came in with an IC50 of 64 ± 0.6 µM. Also, the “Selectivity for AChE (selectivity index)” value in assay [1] (defined as IC50 (BuChE)/IC50 (AChE)) was determined as 7.40. Further, on AChE, the “type of AChE inhibition” value is “competitive inhibitors” and the Vmax worked out at 0.2236. Also, the IC50 in assay [2] was 474 µM.
Turning to `N#C/C(=C\c1cc(-c2ccc(F)cc2)on1)c1nc2ccccc2s1` [7c, (E)-2-(Benzo[d]thiazol-2-yl)-3-[5-(4-fluorophenyl)isoxazol-3-yl]acrylonitrile], the IC50 in assay [1] is 699 ± 0.3 µM; in assay [2] it was over 1440 µM.
On to `N#C/C(=C\c1ccc(-c2ccccc2)cc1)c1nc2ccccc2s1` [7j, (E)-2-(Benzo[d]thiazol-2-yl)-3-(1,1'-biphenyl-4-yl)acrylonitrile], for which the IC50 in assay [1] is over 1480 µM; in assay [2], 1273 ± 0.7 µM.
On the same counts, the results for `N#C/C(=C\c1ccc(N2CCOCC2)cc1)c1nc2ccccc2s1` [7d, (E)-2-(Benzo[d]thiazol-2-yl)-3-(4-morpholin-4-ylphenyl)acrylonitrile] are 504 ± 1 µM and over 1440 µM.
